One molecule from paper PMC9157009, “Protein proximity networks and functional evaluation of the casein kinase 1 gamma family reveal unique roles for CK1γ3 in WNT signaling” (The Journal of Biological Chemistry, 2022) can be followed below.

The structures appear in SMILES notation. pIC50: −log10 of the molar value. Where “and” joins values, the source holds several entries; their conditions need not be identical. Identical values can stand only once.

The target in experiment [1] is T1, CK1γ1 (Homo sapiens, UniProt Q9HCP0).
T1 construct: purchased Eurofins
Description: scanMAX binding assay, CK1γ1. Particulars: Percent of Control; legend and method: 1 μM; read-out: CK1γ1 PoC @ 1 µM. The source says:
(§1) As described previously, this commercial assay platform screens against 403 WT human kinases in binding assays and provides PoC values ([73]).

The target of a further experiment is T2, CK1γ2 (Homo sapiens, UniProt P78368).
T2 construct: purchased Eurofins
Description: scanMAX binding assay, CK1γ2. As to conditions: Percent of Control; legend and method: 1 μM; read-out: CK1γ2 PoC @ 1 µM.
From the text: as §1

Another experiment deals with T3, GSK3α (Homo sapiens, UniProt P49840).
T3 construct: purchased Eurofins DiscoverX Corporation
The experiment can be described thus: scanMAX binding assay, GSK3α. As to conditions: Percent of Control; legend and method: 1 μM.
From the text: as §1

For experiment [2], the system named is BAR reporter (β-catenin-dependent WNT signaling). Description: BAR luciferase transcriptional reporter assay in HEK293T B/R cells. In kind it is cell-based, human. Particulars: HEK293T B/R cells transfected 14 h, 0.1, 1.0 or 10 μM FP1 for 18 h. The procedure:
All luciferase reporter assays were performed as previously described ([15], [43]). […] In both loss-of-function and gain-of-function experiments, treatments (WNT3A CM or drug) were added 18 h before harvesting cells. Conditions were plated in triplicate, and Renilla normalized values were averaged across triplicates to yield the data presented and standard error. Each assay was repeated in biological triplicate, unless otherwise stated. Firefly luciferase and the Renilla control were detected using the Promega Dual-Luciferase Reporter Assay System per the manufacturer’s protocol (Promega; catalog no.: E1960). Plates were read on the Victor Nivo plate reader (PerkinElmer).
On the technique in general: Reporter assays use an easily measured gene product as a stand-in for the process of interest.

In the next experiment the target is T4, GSK3β (NLuc-GSK3β) (Homo sapiens, UniProt P49841).
T4 construct: host or cells: HEK293T
Description: NanoBRET cellular target engagement assay, NLuc-GSK3β in HEK293T cells. Particulars: live HEK293T cells, 0.063 μM tracer K-8; read-out: GSK3β NanoBRET assay, inactive up to. In kind it is cell-based. The procedure: HEK293T cells (hypotriploid, fetal) were purchased from ATCC. These cells were grown in Dulbecco’s modified Eagle’s medium (Gibco) supplemented with 10% (v/v) fetal bovine serum (Corning). They were incubated in 5% CO2 at 37 °C and passaged every 72 h with trypsin and not allowed to reach confluency. Constructs for NanoBRET measurements of CK1γ2 (NLuc-CK1γ2) and GSK3β (NLuc-GSK3β) were kindly provided by Promega. NanoBRET assays were carried out as described previously ([74]). Preferred NLuc orientations, both N-terminal in this case, are indicated in parentheses after each construct. Assays were carried out in dose–response as described by the manufacturer using 0.5 μM of tracer K-10 for CK1γ2 and 0.063 μM of tracer K-8 for GSK3β. Two biological replicates were executed with two technical replicates to produce the graphs with error bars shown in Figures 6E, 7E, 8, A and B. Tracer titration curves for these kinases that motivated our tracer selection and working concentration can be found on the Promega website.
Background: BRET reads energy transfer from a luciferase to a nearby fluorophore.

The next experiment deals with CSNK1A1L (Homo sapiens, UniProt Q8N752). The experiment can be described thus: scanMAX binding assay, CSNK1A1L. As to conditions: Percent of Control; legend and method: 1 μM; read-out: CSNK1A1L PoC @ 1 µM.
From the text: as §1

Another experiment concerns LRP6. Description: W. blot of LRP6 phosphorylation after WNT3A in RKO cells. As to conditions: RKO cells pretreated 1 h. In kind it is cell-based, human. Here is the method: Standard W. blot techniques were utilized and performed as previously described ([15], [43]). Briefly, cells were lysed in RIPA lysis buffer, flash frozen on dry ice, and then cleared at high speed for 10 min at maximum speed. Protein concentration was determined by a bicinchoninic acid assay following kit specifications. Samples were balanced, and NuPAGE 4× SDS loading buffer (Thermo Fisher Scientific; catalog no.: NP0007) containing DTT was added to each sample and heated for 10 min at 70 °C. Samples were run on a NuPAGE 4 to 12% Bis–Tris Protein Gel (Thermo Fisher Scientific; catalog no.: NP0321) and then transferred to a nitrocellulose membrane. The membrane was then blocked and incubated overnight with primary antibody at 4 °C with rotation, washed with Tris-buffered saline with Tween-20, incubated with secondary antibody, washed with Tris-buffered saline with Tween-20, and imaged. Images were taken using a LiCOR Odyssey CLx imager and quantified with LiCOR software (LiCOR Biosciences). All antibodies were used at a concentration of 1:1000, with the exception of loading controls, which were used at 1:10,000. […]

The target of another experiment is T5, CIT (Homo sapiens, UniProt O14578).
T5 construct: purchased Eurofins DiscoverX Corporation
Description: scanMAX binding assay, CIT. Particulars: Percent of Control; legend and method: 1 μM; read-out: CIT PoC @ 1 µM.
From the text: as §1

The next experiment concerns the target T6, DYRK1A (Homo sapiens, UniProt Q13627).
T6 construct: purchased Eurofins DiscoverX Corporation
The experiment can be described thus: scanMAX binding assay, DYRK1A. As to conditions: Percent of Control; legend and method: 1 μM; read-out: DYRK1A PoC @ 1mM.
From the text: as §1

For the next experiment, the target named is T7, TAK1 (Homo sapiens, UniProt O43318).
T7 construct: purchased Eurofins DiscoverX Corporation (scanMAX)
The experiment can be described thus: scanMAX binding assay, TAK1. As to conditions: Percent of Control; legend and method: 1 μM; read-out: TAK1 PoC @ 1 µM.
From the text: as §1

In experiment [3] the target is T1, CK1γ1. Description: Eurofins kinase enzymatic radiometric assay, CK1γ1. In kind it is biochemical. Particulars: Km = ATP, 9-pt curve in duplicate. The source says:
Details related to the substrate used, protein constructs, controls, and assay protocol for each kinase assay are included on the Eurofins website: https://www.eurofinsdiscoveryservices.com/.

T1 sequence (Q9HCP0 whole entry): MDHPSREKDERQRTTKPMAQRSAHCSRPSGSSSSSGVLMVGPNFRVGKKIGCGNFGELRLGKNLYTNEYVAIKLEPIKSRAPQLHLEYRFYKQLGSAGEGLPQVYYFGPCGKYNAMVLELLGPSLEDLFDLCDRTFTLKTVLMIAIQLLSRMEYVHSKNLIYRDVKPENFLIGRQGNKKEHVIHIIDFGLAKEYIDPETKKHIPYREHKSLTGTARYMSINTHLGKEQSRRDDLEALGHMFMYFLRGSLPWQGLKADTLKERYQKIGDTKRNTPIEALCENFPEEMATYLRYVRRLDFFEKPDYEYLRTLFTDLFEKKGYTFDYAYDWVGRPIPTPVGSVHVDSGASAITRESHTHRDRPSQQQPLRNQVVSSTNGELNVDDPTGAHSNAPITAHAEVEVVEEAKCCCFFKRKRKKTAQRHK
Chain of CSNK1A1L (Q8N752 whole entry): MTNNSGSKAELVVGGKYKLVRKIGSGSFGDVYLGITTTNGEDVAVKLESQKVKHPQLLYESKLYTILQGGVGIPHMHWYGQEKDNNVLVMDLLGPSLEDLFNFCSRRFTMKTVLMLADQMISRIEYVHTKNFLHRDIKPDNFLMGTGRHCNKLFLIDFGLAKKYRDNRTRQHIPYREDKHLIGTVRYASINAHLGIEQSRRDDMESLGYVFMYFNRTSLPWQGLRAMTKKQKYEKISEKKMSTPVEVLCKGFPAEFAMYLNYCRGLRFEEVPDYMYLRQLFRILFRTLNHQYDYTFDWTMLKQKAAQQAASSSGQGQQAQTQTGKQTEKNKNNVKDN
T2 sequence (P78368 whole entry): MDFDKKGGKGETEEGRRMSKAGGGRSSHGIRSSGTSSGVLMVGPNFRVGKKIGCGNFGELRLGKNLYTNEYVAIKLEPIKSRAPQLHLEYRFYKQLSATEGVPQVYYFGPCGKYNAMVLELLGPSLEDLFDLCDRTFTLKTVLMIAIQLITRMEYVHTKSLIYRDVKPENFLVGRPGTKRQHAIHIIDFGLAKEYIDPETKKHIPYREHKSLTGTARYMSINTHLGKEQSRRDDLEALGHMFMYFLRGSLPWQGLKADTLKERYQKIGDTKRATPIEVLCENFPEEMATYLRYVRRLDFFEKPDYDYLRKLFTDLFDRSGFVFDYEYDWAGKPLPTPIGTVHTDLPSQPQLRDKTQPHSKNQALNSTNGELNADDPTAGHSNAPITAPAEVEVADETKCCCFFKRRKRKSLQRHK
T5 sequence (O14578 whole entry): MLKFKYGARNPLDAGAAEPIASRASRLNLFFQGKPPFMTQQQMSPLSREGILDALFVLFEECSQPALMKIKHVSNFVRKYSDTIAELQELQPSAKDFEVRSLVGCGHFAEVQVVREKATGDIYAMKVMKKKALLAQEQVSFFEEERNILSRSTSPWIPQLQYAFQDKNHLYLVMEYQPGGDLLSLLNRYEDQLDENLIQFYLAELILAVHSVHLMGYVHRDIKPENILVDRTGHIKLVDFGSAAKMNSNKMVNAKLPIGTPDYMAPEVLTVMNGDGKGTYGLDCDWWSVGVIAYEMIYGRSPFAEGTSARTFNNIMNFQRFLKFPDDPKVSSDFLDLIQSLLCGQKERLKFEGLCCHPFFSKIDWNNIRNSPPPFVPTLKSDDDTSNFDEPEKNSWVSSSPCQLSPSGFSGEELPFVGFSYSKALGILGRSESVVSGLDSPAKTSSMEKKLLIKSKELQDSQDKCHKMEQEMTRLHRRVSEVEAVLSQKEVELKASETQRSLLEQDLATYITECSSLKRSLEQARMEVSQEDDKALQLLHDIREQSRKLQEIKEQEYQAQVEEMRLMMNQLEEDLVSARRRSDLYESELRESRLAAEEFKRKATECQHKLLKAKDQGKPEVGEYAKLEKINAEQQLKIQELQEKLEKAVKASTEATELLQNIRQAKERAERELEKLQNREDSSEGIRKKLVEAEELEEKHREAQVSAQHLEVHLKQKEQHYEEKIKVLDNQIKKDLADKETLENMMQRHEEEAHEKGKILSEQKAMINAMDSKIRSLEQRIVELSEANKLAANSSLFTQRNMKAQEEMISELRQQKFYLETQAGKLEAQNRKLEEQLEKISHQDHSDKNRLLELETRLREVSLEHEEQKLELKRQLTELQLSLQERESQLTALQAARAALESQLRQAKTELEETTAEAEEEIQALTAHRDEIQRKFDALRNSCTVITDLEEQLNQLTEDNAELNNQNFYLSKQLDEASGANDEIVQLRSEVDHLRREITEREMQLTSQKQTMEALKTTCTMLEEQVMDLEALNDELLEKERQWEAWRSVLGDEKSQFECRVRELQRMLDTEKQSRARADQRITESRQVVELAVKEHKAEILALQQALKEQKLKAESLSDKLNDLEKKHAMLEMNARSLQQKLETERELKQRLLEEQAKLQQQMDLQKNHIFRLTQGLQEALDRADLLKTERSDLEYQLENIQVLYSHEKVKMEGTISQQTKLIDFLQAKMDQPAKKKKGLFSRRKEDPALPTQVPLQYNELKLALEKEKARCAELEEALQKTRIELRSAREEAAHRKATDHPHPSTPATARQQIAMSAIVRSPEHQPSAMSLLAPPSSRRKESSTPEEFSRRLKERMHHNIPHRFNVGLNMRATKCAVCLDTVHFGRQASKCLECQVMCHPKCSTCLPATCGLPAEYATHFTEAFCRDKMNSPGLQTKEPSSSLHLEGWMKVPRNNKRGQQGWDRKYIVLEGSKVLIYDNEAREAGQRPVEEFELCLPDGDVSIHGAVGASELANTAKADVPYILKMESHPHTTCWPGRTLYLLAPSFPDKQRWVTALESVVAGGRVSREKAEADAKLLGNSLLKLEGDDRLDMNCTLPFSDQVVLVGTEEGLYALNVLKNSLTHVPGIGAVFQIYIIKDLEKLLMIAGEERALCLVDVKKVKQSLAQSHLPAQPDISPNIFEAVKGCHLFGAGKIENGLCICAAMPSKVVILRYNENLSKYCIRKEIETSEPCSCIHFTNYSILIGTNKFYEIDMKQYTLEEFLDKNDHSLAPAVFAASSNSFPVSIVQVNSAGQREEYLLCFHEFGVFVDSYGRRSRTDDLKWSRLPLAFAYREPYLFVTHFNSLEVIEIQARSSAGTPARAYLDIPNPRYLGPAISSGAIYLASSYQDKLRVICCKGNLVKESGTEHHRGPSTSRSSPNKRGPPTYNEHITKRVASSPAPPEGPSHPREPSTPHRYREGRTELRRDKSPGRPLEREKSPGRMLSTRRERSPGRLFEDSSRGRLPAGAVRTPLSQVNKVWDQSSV
T4 sequence (P49841 whole entry): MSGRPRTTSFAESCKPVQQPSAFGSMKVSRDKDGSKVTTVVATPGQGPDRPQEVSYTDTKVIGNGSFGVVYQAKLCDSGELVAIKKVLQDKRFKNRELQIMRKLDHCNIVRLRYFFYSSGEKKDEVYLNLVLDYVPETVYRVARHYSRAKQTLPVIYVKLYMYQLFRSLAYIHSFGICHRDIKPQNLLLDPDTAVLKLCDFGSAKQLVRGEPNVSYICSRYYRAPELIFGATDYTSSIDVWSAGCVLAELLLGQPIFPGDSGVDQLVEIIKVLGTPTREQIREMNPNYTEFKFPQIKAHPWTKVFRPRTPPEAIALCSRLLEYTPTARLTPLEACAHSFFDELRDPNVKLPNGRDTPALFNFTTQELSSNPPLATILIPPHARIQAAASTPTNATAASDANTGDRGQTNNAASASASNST
T3 sequence (P49840 whole entry): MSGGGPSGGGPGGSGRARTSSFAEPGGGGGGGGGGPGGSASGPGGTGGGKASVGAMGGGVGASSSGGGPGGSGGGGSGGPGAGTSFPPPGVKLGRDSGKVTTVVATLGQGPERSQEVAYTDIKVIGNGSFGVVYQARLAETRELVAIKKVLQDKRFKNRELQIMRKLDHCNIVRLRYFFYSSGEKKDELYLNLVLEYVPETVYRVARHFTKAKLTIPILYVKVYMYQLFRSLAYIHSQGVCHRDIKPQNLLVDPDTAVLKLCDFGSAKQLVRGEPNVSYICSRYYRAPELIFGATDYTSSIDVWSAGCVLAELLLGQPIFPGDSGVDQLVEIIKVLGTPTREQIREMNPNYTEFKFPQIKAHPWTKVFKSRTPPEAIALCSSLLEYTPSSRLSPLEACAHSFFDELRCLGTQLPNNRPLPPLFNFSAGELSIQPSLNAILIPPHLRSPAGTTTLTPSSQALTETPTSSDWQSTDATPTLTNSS
T7 sequence (O43318 whole entry): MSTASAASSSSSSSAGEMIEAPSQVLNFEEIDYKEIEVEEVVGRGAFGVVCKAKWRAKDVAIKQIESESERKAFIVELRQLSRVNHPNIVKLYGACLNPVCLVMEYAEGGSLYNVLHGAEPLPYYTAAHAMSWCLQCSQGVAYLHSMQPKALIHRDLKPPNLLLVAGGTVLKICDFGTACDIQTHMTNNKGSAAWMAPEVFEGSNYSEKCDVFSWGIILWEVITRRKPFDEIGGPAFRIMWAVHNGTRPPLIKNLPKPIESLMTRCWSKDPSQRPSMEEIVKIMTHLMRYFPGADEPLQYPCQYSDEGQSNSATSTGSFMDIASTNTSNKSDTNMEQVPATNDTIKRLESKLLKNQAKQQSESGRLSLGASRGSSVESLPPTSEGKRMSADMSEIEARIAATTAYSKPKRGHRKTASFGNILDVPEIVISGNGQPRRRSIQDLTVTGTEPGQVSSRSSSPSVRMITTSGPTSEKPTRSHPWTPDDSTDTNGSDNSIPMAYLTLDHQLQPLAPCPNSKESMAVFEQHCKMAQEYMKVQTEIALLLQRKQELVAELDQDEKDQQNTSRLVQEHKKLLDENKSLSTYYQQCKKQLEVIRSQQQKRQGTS

As for `COc1cnc(COc2ccc(F)c(F)c2)cc1-c1cc2c([nH]1)CCNC2=O` [FP1-24-2, 2-(2-((3,4-difluorophenoxy)methyl)-5-methoxypyridin-4-yl)-1,5,6,7-tetrahydro-4H-pyrrolo[3,2-c]pyridin-4-one], the remaining binding at 1 µM at CK1γ1 [1] stood at 8.5%; on CK1γ2, 4.3%; at CSNK1A1L, 5.9%; on CIT it was 0.6%; at TAK1 it was 6.9%. On GSK3α, the “GSK3α PoC @ 1 µM” value was “did not inhibit”. In addition, the “BAR activity with CK1γ3 overexpression” value in experiment [2] is reported as “decrease”. Moreover, the pIC50 at GSK3β (NLuc-GSK3β) was less than 5.00; against CK1γ1 [3], > 7.82 and 8.28. Further, in the experiment on LRP6 (WNT3A 30 or 60 min, compared with dimethyl sulfoxide control), the “phosphorylation of LRP6 at site S1490” value is reported as “diminished”. Besides, the “LRP6 phosphorylation at T1479” value in the experiment on LRP6 (then exposed to WNT3A 30 or 60 min) was “did not increase”. In addition, the remaining binding at 1000 µM at DYRK1A was found to be 0.1%.
